Experimental data taken from ChEMBL document CHEMBL3046079, “Synthesis, herbicidal activity, and mode of action of IR 5790” (J Agric Food Chem, 2001).
Active and inactive are the calls of the source. The rule behind the calls is not given here.

Assays:
Capsella bursa-pastoris = assay: Pre-emergence herbicidal activity against Capsella bursa-pastoris assessed as injury at 50 g/ha applied at 24 hr post-sowing measured after 28 days relative to control; format: functional
Ammi majus [1] = assay: Post-emergence herbicidal activity against Amni maius assessed as injury at 50 g/ha applied at 15 days post-sowing measured after 15 days relative to control; format: functional
Amaranthus retroflexus [2] = assay: Pre-emergence herbicidal activity against Amaranthus retroflexus assessed as injury at 50 g/ha applied at 24 hr post-sowing measured after 28 days relative to control; format: functional
Galium aparine [3] = assay: Post-emergence herbicidal activity against Galium aparine assessed as injury at 150 g/ha applied at 15 days post-sowing measured after 15 days relative to control; format: functional
Panicum dichotomiflorum [4] = assay: Post-emergence herbicidal activity against Panicum dichotomiflorum assessed as injury at 50 g/ha applied at 15 days post-sowing measured after 15 days relative to control; format: functional
Sorghum bicolor [5] = assay: Post-emergence herbicidal activity against Sorghum bicolor assessed as injury at 50 g/ha applied at 15 days post-sowing measured after 15 days relative to control; format: functional
Panicum dichotomiflorum [6] = assay: Pre-emergence herbicidal activity against Panicum dichotomiflorum assessed as injury at 50 g/ha applied at 24 hr post-sowing measured after 28 days relative to control; format: functional
Alopecurus myosuroides = assay: Post-emergence herbicidal activity against Alopecurus myosuroides assessed as injury at 50 g/ha applied at 15 days post-sowing measured after 15 days relative to control; format: functional
Matricaria chamomilla [7] = assay: Post-emergence herbicidal activity against Matricaria chamomilla assessed as injury at 50 g/ha applied at 15 days post-sowing measured after 15 days relative to control; format: functional
Ammi majus [8] = assay: Post-emergence herbicidal activity against Amni maius assessed as injury at 15 g/ha applied at 15 days post-sowing measured after 15 days relative to control; format: functional
Triticum aestivum = assay: Phytotoxicity against Triticum aestivum (wheat) assessed as injury at 150 g/ha applied as pre-emergent treatment at 24 hr post-sowing measured after 28 days relative to control; format: organism-based; conditions: in vivo, other, 672 h
Chenopodium album [9] = assay: Pre-emergence herbicidal activity against Chenopodium album assessed as injury at 50 g/ha applied at 24 hr post-sowing measured after 28 days relative to control; format: functional
Papaver rhoeas [10] = assay: Post-emergence herbicidal activity against Papaver rhoeas assessed as injury at 150 g/ha applied at 15 days post-sowing measured after 15 days relative to control; format: functional
Chenopodium album [11] = assay: Post-emergence herbicidal activity against Chenopodium album assessed as injury at 150 g/ha applied at 15 days post-sowing measured after 15 days relative to control; format: functional
Sida spinosa [12] = assay: Pre-emergence herbicidal activity against Sida spinosa assessed as injury at 50 g/ha applied at 24 hr post-sowing measured after 28 days relative to control; format: functional
Stellaria media = assay: Post-emergence herbicidal activity against Stellaria media assessed as injury at 150 g/ha applied at 15 days post-sowing measured after 15 days relative to control; format: functional
Sida spinosa [13] = assay: Pre-emergence herbicidal activity against Sida spinosa assessed as injury at 150 g/ha applied at 24 hr post-sowing measured after 28 days relative to control; format: functional
Matricaria chamomilla [14] = assay: Pre-emergence herbicidal activity against Matricaria chamomilla assessed as injury at 150 g/ha applied at 24 hr post-sowing measured after 28 days relative to control; format: functional
Calystegia sepium [15] = assay: Post-emergence herbicidal activity against Calystegia sepium assessed as injury at 15 g/ha applied at 15 days post-sowing measured after 15 days relative to control; format: functional
Calystegia sepium [16] = assay: Pre-emergence herbicidal activity against Calystegia sepium assessed as injury at 50 g/ha applied at 24 hr post-sowing measured after 28 days relative to control; format: functional
Papaver rhoeas [17] = assay: Post-emergence herbicidal activity against Papaver rhoeas assessed as injury at 50 g/ha applied at 15 days post-sowing measured after 15 days relative to control; format: functional
Avena fatua = assay: Post-emergence herbicidal activity against Avena fatua assessed as injury at 150 g/ha applied at 15 days post-sowing measured after 15 days relative to control; format: functional
Veronica persica = assay: Pre-emergence herbicidal activity against Veronica persica assessed as injury at 150 g/ha applied at 24 hr post-sowing measured after 28 days relative to control; format: functional
Sida spinosa [18] = assay: Post-emergence herbicidal activity against Sida spinosa assessed as injury at 50 g/ha applied at 15 days post-sowing measured after 15 days relative to control; format: functional
Beta vulgaris = assay: Phytotoxicity against Beta vulgaris assessed as injury at 50 g/ha applied as post-emergent treatment at 15 days post-sowing measured after 15 days relative to control; format: organism-based; conditions: in vivo, other, 360 h
Cucumis sativus = assay: Induction of photobleaching in Cucumis sativus (cucumber) cotyledon disc at 1 to 100 uM incubated for 20 hr in dark followed by 8 hr in presence of light; format: functional
Solanum nigrum = assay: Post-emergence herbicidal activity against Solanum nigrum (black nightshade) assessed as injury at 15 g/ha applied at 15 days post-sowing measured after 15 days relative to control; format: functional
Amaranthus retroflexus [19] = assay: Post-emergence herbicidal activity against Amaranthus retroflexus assessed as injury at 150 g/ha applied at 15 days post-sowing measured after 15 days relative to control; format: functional
[20] = biological target: T1, Putative protoporphyrinogen IX oxidase (Cucumis sativus) (UniProt C6L817); assay: Inhibition of protoporphyrin oxidase in Cucumis sativus (cucumber) cotyledon disc assessed as increase in extraplastidic protoporphyrin 9 accumulation at 100 uM incubated in dim light for 2 hr by HPLC analysis relative to control
T1 sequence (whole entry): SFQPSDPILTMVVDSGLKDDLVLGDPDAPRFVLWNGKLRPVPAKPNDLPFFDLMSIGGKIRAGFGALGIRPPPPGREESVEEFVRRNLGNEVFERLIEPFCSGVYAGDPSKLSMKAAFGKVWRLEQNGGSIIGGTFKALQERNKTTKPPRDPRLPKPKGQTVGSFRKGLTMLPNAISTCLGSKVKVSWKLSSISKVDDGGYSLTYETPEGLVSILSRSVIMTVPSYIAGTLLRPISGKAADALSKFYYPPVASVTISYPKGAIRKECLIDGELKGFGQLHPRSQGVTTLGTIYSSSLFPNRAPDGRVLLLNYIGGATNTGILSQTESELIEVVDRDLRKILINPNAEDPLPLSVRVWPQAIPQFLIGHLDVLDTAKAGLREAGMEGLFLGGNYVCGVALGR

Geranium dissectum = assay: Post-emergence herbicidal activity against Geranium dissectum assessed as injury at 50 g/ha applied at 15 days post-sowing measured after 15 days relative to control; format: functional
Galium aparine [21] = assay: Pre-emergence herbicidal activity against Galium aparine assessed as injury at 50 g/ha applied at 24 hr post-sowing measured after 28 days relative to control; format: functional
Ipomoea purpurea = assay: Post-emergence herbicidal activity against Ipomoea purpurea (common morning-glory) assessed as injury at 5 g/ha applied at 15 days post-sowing measured after 15 days relative to control; format: functional
Sorghum bicolor [22] = assay: Pre-emergence herbicidal activity against Sorghum bicolor assessed as injury at 150 g/ha applied at 24 hr post-sowing measured after 28 days relative to control; format: functional

With C#CCOc1cc(-n2nc(C(C)(C)C)sc2=O)c(Cl)cc1Cl the Activity (Capsella bursa-pastoris) was 70%, the Activity (Ammi majus [1]) was 0% and the Activity (Amaranthus retroflexus [2]) was 50%. The Activity (Galium aparine [3]) was 50%, the Activity (Panicum dichotomiflorum [4]) was 50% and the Activity (Sorghum bicolor [5]) was 0%. It also gave an Activity (Panicum dichotomiflorum [6]) of 90%, an Activity (Alopecurus myosuroides) of 30% and an Activity (Matricaria chamomilla [7]) of 0%. For the same compound, the Activity (Ammi majus [8]) was 0%, the Activity (Triticum aestivum) was 0% and the Activity (Chenopodium album [9]) was 70%. The Activity (Papaver rhoeas [10]) was 30%, the Activity (Chenopodium album [11]) was 90% and the Activity (Sida spinosa [12]) was 0%. It also gave an Activity (Stellaria media) of 0%, an Activity (Sida spinosa [13]) of 0% and an Activity (Matricaria chamomilla [14]) of 50%. It also gave an Activity (Calystegia sepium [15]) of 50%, an Activity (Calystegia sepium [16]) of 0% and an Activity (Papaver rhoeas [17]) of 0%. The Activity (Avena fatua) was 30%, the Activity (Veronica persica) was 50% and the Activity (Sida spinosa [18]) was 50%. For the same compound, the Activity (Beta vulgaris) was 50%, the Activity (Cucumis sativus) was “inactive” and the Activity (Solanum nigrum) was 10%. For the same compound, the Activity (Amaranthus retroflexus [19]) was 90%, the fold change (FC) [20] was 292 and the Activity (Geranium dissectum) was 50%. The Activity (Galium aparine [21]) was 0%, the Activity (Ipomoea purpurea) was 50% and the Activity (Sorghum bicolor [22]) was 50%.
